Reference: patent publication US20250230138A1, “COMPOUNDS HAVING A T-STRUCTURE FORMED BY AT LEAST FOUR CYCLES FOR USE IN THE TREATMENT OF CANCER AND OTHER INDICATIONS” (TheRas, Inc., priority 2022, published 2025)
Like-named read-outs stand apart in the source and are kept apart here.

How the values were obtained:
[1] = target: Cys242 in human PIK3CA (157-299) (Homo sapiens (Human), UniProt P42336); assay: Covalent modification assay using MALDI-TOF MS; type: biochemical; settings: 4 h reaction time point
Outline: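 Covalent adduct formation was read by linear-mode MALDI-TOF with sinapinic acid matrix, reported as modified-protein peak height divided by total protein peak heights. Reactions held PIK3CA (157-299) at 1 or 3.33 μM in HEPES/NaCl/MgCl2 buffer, pH 7.3, sampled after 15 min to 4 h at room temperature.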

[2] = tested on: pAKT in BT474 cells; assay: Cell-based pAKT HTRF assay in BT474 cells; settings: BT474 cells, 4 hr incubation, read-out: pAKT inhibition IC50 in BT474 cells
Outline: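 The HTRF signal (excitation 320 nm, emission 615 nm) came from d2/Eu Cryptate antibodies added to lysates and incubated 4–24 h at room temperature. Those lysates were taken from cells treated for 4 hr with compound, top concentration 3 μM, in 0.25% DMSO.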

[3] = 3.33 μM protein target, 1:7.5 protein to compound ratio (compounds 1-852)
[4] = 1 μM protein target, 1:5 protein to compound ratio (compounds 853-1279)

Sequence of Cys242 in human PIK3CA (157-299) (P42336 157-299): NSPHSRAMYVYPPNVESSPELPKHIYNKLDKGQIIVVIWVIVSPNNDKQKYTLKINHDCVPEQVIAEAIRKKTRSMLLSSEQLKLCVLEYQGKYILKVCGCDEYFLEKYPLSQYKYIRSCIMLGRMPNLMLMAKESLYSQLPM

IC50 ([2]; Compounds 10-999) [nM]	IC50 ([2]; Homo sapiens, BT-474, Compounds 10-999) [nM]	IC50 ([2]; Compounds 1000-1279) [nM]	Structure (SMILES)	% of modification [1, 3]	% of modification [1, 4]
< 100	–	–	C=CC(=O)N1Cc2cc(-c3nc(-c4ccc5c(c4)CS(=O)(=O)C5)c4ccsc4c3-c3c(F)cc(F)cc3OCCOC)nn2C[C@H]1C [Compound 746]	A (percent of modification of PIK3CA protein ≥75%)	–
< 100	–	–	C=CC(=O)N1Cc2cc(-c3nc(-c4cnn(C(F)F)c4)c4ccsc4c3-c3c(F)cc(F)cc3OCCOC)nn2CC1C (stereo not shown) [Compound 772]	A (percent of modification of PIK3CA protein ≥75%)	–
< 100	–	–	C=CC(=O)N1CCc2ccc(-c3nc(-c4cnc5c(c4)CNC(=O)C5)c4ccsc4c3-c3c(F)cc(F)cc3OC(C)C)cc2C1 [Compound 499]	A (percent of modification of PIK3CA protein ≥75%)	–
–	100 to 1000	–	C=CC(=O)N1CC(n2cc(-c3nc(-c4ccc5c(c4)CCNC5)c4ccsc4c3-c3ccc(F)cc3OC)ccc2=O)C1 [Compound 110, 5-[7-(4-fluoro-2-methoxy-phenyl)-4-(1,2,3,4-tetrahydroisoquinolin-6-yl)thieno[3,2-c]pyridin-6-yl]-1-(1-prop-2-enoylazetidin-3-yl)pyridin-2-one]	A (percent of modification of PIK3CA protein ≥75%)	–
100 to 1000	–	–	C=CC(=O)N1Cc2cc(-c3nc(-c4ccc5c(c4)CCN(C)C5)c4ccsc4c3-c3c(F)cc(F)cc3OC)nn2[C@@H](C)C1 [Compound 562]	C (25%≤percent of modification <50%)	–
–	–	< 100	C=CC(=O)N1CCn2nc(-c3nc(-c4ccc(OCCN(C)C)nc4)c4ccsc4c3-c3c(F)cc(F)cc3OCCOC)cc2C1C (stereo not shown) [Compound 1065]	–	A (percent of modification of PIK3CA protein ≥75%)
100 to 1000	–	–	C=CC(=O)N1CC(n2cc(-c3nc(-c4ccc5c(c4)CCNC5)c4ccsc4c3-c3ccc(F)cc3C(F)F)cn2)C1 [Compound 120]	A (percent of modification of PIK3CA protein ≥75%)	–
–	–	100 to 1000	C=CC(=O)N1CCc2nc(-c3nc(-c4ccc5c(c4)CN(C)CC5(F)F)c4ccsc4c3-c3c(F)cc(F)cc3OCCOC)sc2C1 [Compound 1276]	–	A (percent of modification of PIK3CA protein ≥75%)
100 to 1000	–	–	C=CC(=O)N1CCc2nc(-c3nc(-c4cnn(CC(C)(C)N)c4)c4ccsc4c3-c3c(F)cc(F)cc3OC(C)C)sc2C1 [Compound 401]	A (percent of modification of PIK3CA protein ≥75%)	–
< 100	–	–	C=CC(=O)N1Cc2cc(-c3nc(-c4cnn(C)c4)c4ccsc4c3-c3c(F)cc(F)cc3OC(C)C)nn2C[C@H]1C [Compound 457, 1-((R)-2-((S)-7-(2,4-difluoro-6-isopropoxyphenyl)-4-(1-methyl-1H-pyrazol-4-yl)thieno[3,2-c]pyridin-6-yl)-6-methyl-6,7-dihydropyrazolo[1,5-a]pyrazin-5(4H)-yl)prop-2-en-1-one]	A (percent of modification of PIK3CA protein ≥75%)	–
100 to 1000	–	–	C=C(F)C(=O)N1Cc2cc(-c3nc(-c4ccc5c(c4)CCN(C)C5)c4ccsc4c3-c3c(F)cc(F)cc3OC(C)C)nn2CC1C (single isomer, unassigned) [Compound 501]	D (percent of modification <25%)	–
< 100	–	–	C=CC(=O)N1Cc2cc(-c3nc(N4CCC(N(C)C)CC4)c4ccsc4c3-c3c(F)cc(F)cc3OCCOC)nn2CC1C (stereo not shown) [Compound 857]	–	A (percent of modification of PIK3CA protein ≥75%)
1000 to 3000	–	–	C=CC(=O)N1C[C@H](C)n2nc(-c3nc(-c4cnn(C)c4)c4ccsc4c3-c3c(F)cc(F)cc3OCCOC)cc2[C@@H]1C [Compound 603]	D (percent of modification <25%)	–
–	–	< 100	C=CC(=O)N1CCn2nc(-c3nc(-c4ccc5c(c4)CN(C)CC5)c4ccsc4c3-c3c(F)cc(F)cc3OCCOC)cc2C1C (stereo not shown) [Compound 1104]	–	A (percent of modification of PIK3CA protein ≥75%)
